Source: the supplement of paper PMC10307832

How the values were obtained:
Experiment in all cases: relative viability (nuclei count vs DMSO), 5 days (fraction); higher = more cells survive
Idelalisib + Decitabine = compound: CC[C@H](Nc1ncnc2[nH]cnc12)c1nc2cccc(F)c2c(=O)n1-c1ccccc1 [Idelalisib] + Nc1ncn([C@H]2C[C@H](O)[C@@H](CO)O2)c(=O)n1 [Decitabine] (partner 2 µM)
How it was run: (§1)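 Lung cancer cell lines were seeded in 1536-well plates and dosed by pin tool the next day, with either a single drug or a fixed anchor-drug dose combined with five library-drug doses (not always all listed) spaced in √10 steps. Five days later, one step fixed the cells and stained their nuclei (final 0.05% Triton X-100, 1% formaldehyde, 1 ug/ml Hoechst), and nuclei were counted on 4× images. Relative viability is the nuclei count in treated wells divided by the count in vehicle wells, and each value is the median of duplicate plates.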

Idelalisib + Navitoclax = compound: CC[C@H](Nc1ncnc2[nH]cnc12)c1nc2cccc(F)c2c(=O)n1-c1ccccc1 [Idelalisib] + CC1(C)CCC(c2ccc(Cl)cc2)=C(CN2CCN(c3ccc(C(=O)NS(=O)(=O)c4ccc(N[C@H](CCN5CCOCC5)CSc5ccccc5)c(S(=O)(=O)C(F)(F)F)c4)cc3)CC2)C1 [Navitoclax] (partner 0.5 µM)
How it was run: as §1

Pemetrexed + AZD7762 = compound: Nc1nc2[nH]cc(CCc3ccc(C(=O)N[C@@H](CCC(=O)O)C(=O)O)cc3)c2c(=O)[nH]1 [Pemetrexed] + NC(=O)Nc1cc(-c2cccc(F)c2)sc1C(=O)N[C@H]1CCCNC1 [AZD7762] (partner 0.2 µM)
How it was run: as §1

| Cell Line | relative viability (Idelalisib + Decitabine; first compound 0.04 µM) | relative viability (Idelalisib + Decitabine; first compound 0.1265 µM) | relative viability (Idelalisib + Decitabine; first compound 1.265 µM) | relative viability (Idelalisib + Decitabine; first compound 4 µM) | relative viability (Idelalisib + Navitoclax; first compound 0.04 µM) | relative viability (Idelalisib + Navitoclax; first compound 0.1265 µM) | relative viability (Idelalisib + Navitoclax; first compound 0.4 µM) | relative viability (Idelalisib + Navitoclax; first compound 1.265 µM) | relative viability (Idelalisib + Navitoclax; first compound 4 µM) | relative viability (Pemetrexed + AZD7762; first compound 0.002 µM) | relative viability (Pemetrexed + AZD7762; first compound 0.006325 µM) | relative viability (Pemetrexed + AZD7762; first compound 0.02 µM) | relative viability (Pemetrexed + AZD7762; first compound 0.06325 µM) | relative viability (Pemetrexed + AZD7762; first compound 0.2 µM) | relative viability (Idelalisib + Decitabine; first compound 0.4 µM) |
| --- | --- | --- | --- | --- | --- | --- | --- | --- | --- | --- | --- | --- | --- | --- | --- |
| HARA | 0.642 | 0.62 | 0.548 | 0.586 | 1.2 | 1.11 | 1.17 | 1.16 | 1.09 | 0.272 | 0.302 | 0.582 | 0.259 | 0.128 |  |
| NCI-H1437 | 0.55 | 0.59 | 0.635 | 0.55 | 0.956 | 1.13 | 1.08 | 1.17 | 1.11 | 1.03 | 1.1 | 1.06 | 0.323 | 0.231 | 0.62 |
| BEN | 0.736 | 0.649 | 0.775 | 0.694 | 0.0556 | 0.0685 | 0.0581 | 0.0746 | 0.0521 | 0.746 | 0.849 | 0.765 | 0.638 | 0.648 | 0.757 |
| LXF-289 | 0.438 | 0.402 | 0.438 | 0.395 | 0.961 | 0.948 | 0.912 | 1.02 | 0.97 | 1.06 | 1.02 | 1.14 | 1.09 | 1.02 | 0.368 |
| NCI-H1993 | 0.53 | 0.584 | 0.545 | 0.501 | 0.844 | 0.971 | 0.762 | 0.912 | 0.75 | 0.546 | 0.825 | 0.779 | 0.563 | 0.481 | 0.588 |
| NCI-H727 | 1.03 | 0.747 | 0.881 | 0.889 | 0.454 | 0.57 | 0.416 | 0.548 | 0.354 | 0.773 | 0.573 | 0.763 | 0.523 | 0.653 | 0.867 |
| LOU-NH91 | 0.789 | 0.84 | 0.78 | 0.816 | 0.741 | 0.699 | 0.667 | 0.463 | 0.617 | 0.678 | 0.738 | 0.715 | 0.44 | 0.394 | 0.79 |
| NCI-H1975 | 0.393 | 0.374 | 0.383 | 0.381 | 1.1 | 1.08 | 1.12 | 1.06 | 0.692 |  | 0.819 | 0.818 | 0.583 | 0.35 | 0.373 |
| PC-3 [JPC-3] | 0.917 | 0.89 | 0.819 | 0.772 | 0.912 | 0.892 | 0.795 | 0.668 | 0.679 | 0.448 | 0.968 | 1 | 0.808 | 0.861 | 0.763 |
| NCI-H2126 | 0.545 | 0.56 | 0.548 | 0.524 | 0.896 | 0.861 | 0.813 | 0.805 | 0.789 | 0.904 | 0.954 | 1.06 | 1.01 | 0.879 | 0.532 |
| LU99A | 0.876 | 0.843 | 1.02 | 0.914 | 0.835 | 0.894 | 0.719 | 0.91 | 0.827 | 0.356 | 0.376 | 0.371 | 0.293 | 0.178 | 0.777 |
| NCI-H23 | 0.331 | 0.339 | 0.313 | 0.329 | 0.843 | 0.872 | 0.718 | 0.765 | 0.606 | 0.253 | 0.231 | 0.232 | 0.235 | 0.245 | 0.309 |
| PC-14 | 0.295 | 0.194 | 0.166 | 0.209 | 0.987 | 1.1 | 0.953 | 1.14 | 1.02 | 0.297 | 0.371 | 0.35 | 0.218 | 0.114 | 0.215 |
| HCC-44 | 1.07 | 0.927 | 0.98 | 0.91 | 1.01 | 0.925 | 0.871 | 1.07 | 0.927 | 0.928 | 1.01 | 0.991 | 1.03 | 0.944 | 0.978 |
| A-427 | 0.57 | 0.564 | 0.562 | 0.507 | 0.939 | 0.91 | 1.01 | 1.06 | 0.811 | 0.798 | 0.708 | 0.818 | 0.755 | 0.733 | 0.545 |
| NCI-H596 | 0.994 | 0.962 | 1.15 | 0.887 | 1.18 | 0.931 | 0.881 | 0.973 | 0.892 | 1.17 | 1.1 | 1.07 | 0.472 | 0.362 | 1.06 |
| RERF-LC-KJ | 0.757 | 0.739 | 0.573 | 0.521 | 0.922 | 0.951 | 0.884 | 0.792 | 0.638 | 0.837 | 1.49 | 0.919 | 1.04 | 0.618 | 0.692 |
| NCI-H647 | 0.332 | 0.408 | 0.318 | 0.193 | 1.17 | 1.1 | 0.981 | 0.837 | 0.745 | 0.488 | 0.626 | 0.435 | 0.333 | 0.143 | 0.3 |
| NCI-H1734 | 0.522 | 0.461 | 0.518 | 0.496 | 0.746 | 0.841 | 0.654 | 0.724 | 0.584 | 0.415 | 0.584 | 0.649 | 0.508 | 0.332 | 0.497 |
| NCI-H1395 | 0.724 | 0.657 | 0.712 | 0.607 | 1.53 | 1.11 | 1.05 | 1.04 | 0.982 | 0.387 | 0.373 | 0.421 | 0.415 | 0.38 | 0.726 |
| EMC-BAC-2 | 1 | 1.03 | 1.05 | 0.941 | 1.13 | 1.2 | 1.12 | 1.21 | 1.06 | 1.1 | 0.944 | 1.14 | 0.948 | 0.69 | 0.942 |
| NCI-H1355 | 0.346 | 0.326 | 0.369 | 0.324 | 0.982 | 0.947 | 0.701 | 0.774 | 0.667 | 0.732 | 0.838 | 0.771 | 0.794 | 0.808 | 0.364 |
| NCI-H1792 | 0.505 | 0.599 | 0.558 | 0.472 | 0.464 | 0.587 | 0.617 | 0.667 | 0.645 | 0.608 | 0.633 | 0.697 | 0.676 | 0.633 | 0.514 |
| NCI-H1944 | 0.468 | 0.452 | 0.431 | 0.429 | 1.03 | 1.02 | 1.07 | 0.923 | 0.841 | 0.48 | 0.432 | 0.582 | 0.506 | 0.531 | 0.433 |
| HOP-62 | 0.277 | 0.199 | 0.231 | 0.235 | 1.01 | 1.03 | 1.01 | 1.29 | 1.03 | 0.485 | 0.534 | 0.45 | 0.762 | 0.483 | 0.262 |
